In US20170216219A1, “THERAPEUTIC NANOPARTICLES FOR ACCUMULATION IN THE BRAIN” (UNIVERSITY OF GEORGIA RESEARCH FOUNDATION, INC., priority 2014, published 2017):

What was measured:
Type in all cases: cell-based, Human
[1] = tested on: LPS stimulated NSCs; experiment: Anti-inflammatory properties in LPS stimulated NSCs (cytokine ELISA); details: LPS 100 ng/mL 36 h, 1 μM
Excerpt: Immunosuppressant corticoid based rugs such as prednisone can exert biphasic effects on neuronal mitochondrial dynamics. A low level of prednisone and chronic high levels can attenuate various aspects of mitochondrial function. […] Inflammatory cytokines like TNF-α and IL-6 are closely linked to TBI and these cytokines have a negative effect on damaged tissue. Therefore limiting inflammatory cytokine activity is of major benefit in reducing TBI tissue damage. We used lipopolysaccharide (LPS) to stimulate TNF-α and IL-6 production in NSCs to understand the anti-inflammatory effects of prednisone-NPs and CoQ10-NPs in an in vitro model (FIG. 6C). […] The T and NT NPs containing prednisone reduced the levels of IL-6 in the LPS stimulated NSCs. The addition of T or NT-CoQ10-NPs to prednisone NPs increased the efficiency of IL-6 reduction. […] IL-10 is primarily an anti-inflammatory cytokine with potent inhibitory effects on several pro-inflammatory mediators. […] IL-12 has immune-inflammatory responses in the brain; however the consequences of local production of IL-12 on spontaneous immune responses are unknown. […] The exact mechanism why only mitochondria targeted therapy produces IL-12 from the NSCs warrants further investigation.
Human induced pluripotent stem cell-derived neural stem cells (HIP™ hNSC BC1, GlobalStem®, Rockville, Md.) used for the in vitro portion of this study. NSCs were maintained on matrigel-coated tissue culture dishes in neural stem cell media composed of neural basal medium, 2% B-27 supplement, 1% non-essential amino acids, 2 mM L-alanine/L-glutamine, 1% penicillin/streptomycin, and 20 ng/mL bFGF. The media was changed every other day. When NSCs reached confluence (approximately every 4 to 5 days), cells were enzymatically passaged using Accutase and removed from the dish using a cell scrapper. Cells were split at a 1:4 ratio. […]
NSCs were plated on each well of a 12-well plate at a density of […] per well and allowed to grow overnight (NSC basal media in 200 μL). […] The absorbance was recorded at 450 nm using a BioTek Synergy HT well plate reader.

[2] = tested on: NSCs; experiment: Antioxidative properties by Seahorse analyzer (OCR) in H2O2 treated NSCs; details: H2O2 10 μM, 1 μM with respect to CoQ10
Excerpt: Oxidative stress induced by the production of ROS including free radicals and peroxides is one of the major mechanisms, which leads to neuronal destruction and is closely related to apoptosis and necrosis in these cells during TBI. Mitochondria are well known to be a major source of ROS production. CoQ10 is endogenously synthesized in mammalian mitochondria, acts as both antioxidant and pro-oxidant, and is involved in shuttling electrons from complexes I or II and a number of other electron donors, including electron transfer factor, which moves electrons from fatty acid beta oxidation. CoQ10 is found in all cell and organelle membranes, where it can participate in redox shuttling. However, defects in CoQ10 biosynthesis can be found during TBI. […]
T-CoQ10-NPs, NT-CoQ10-NPs, and free CoQ10 were tested for their ability to reduce oxidative stress in NSCs. […] The cells were monitored for changes in oxygen consumption rate (OCR) with respect to time. A basal reading was acquired for 45 min and then H2O2(10 μM) was injected. The OCR was monitored for 90 min and T-CoQ10-NPs (1 μM with respect to CoQ10), NT-CoQ10-NPs (1 μM with respect to CoQ10), and free CoQ10 (1 μM) were injected. The OCR levels were then further measured for 4.5 h. As a control, cells were also monitored with no treatment or only treatment of H2O2(10 μM).

[3] = tested on: NSCs; experiment: Cytotoxicity by MTT assay against NSCs; details: concentrations used in the cytokine studies
Protocol: Human induced pluripotent stem cell-derived neural stem cells (HIP™ hNSC BC1, GlobalStem®, Rockville, Md.) used for the in vitro portion of this study. NSCs were maintained on matrigel-coated tissue culture dishes in neural stem cell media composed of neural basal medium, 2% B-27 supplement, 1% non-essential amino acids, 2 mM L-alanine/L-glutamine, 1% penicillin/streptomycin, and 20 ng/mL bFGF. The media was changed every other day. When NSCs reached confluence (approximately every 4 to 5 days), cells were enzymatically passaged using Accutase and removed from the dish using a cell scrapper. Cells were split at a 1:4 ratio. To prepare NSCs for MTT and ROS Reduction assays, NSCs were plated in matrigel-coated 96-well dishes at a ratio of 40,000 cells per well in neural stem cell media.
The cytotoxic behavior of all the NPs was evaluated by using the MTT assay against NSCs. Cells (40,000 cells/well) were seeded on a 96-well plate in 100 μL of NSC basal complete medium and incubated for 24 h. The cells were treated with NPs at varying concentrations (with respect to prednisone and CoQ10) and incubated at 37° C. […] The medium was removed, the cells were lysed with 100 μL of DMSO, and the absorbance of the purple formazan was recorded at 550 nm using a Bio-Tek Synergy HT microplate reader. Each well was performed in triplicate and a background reading was recorded at 800 nm.

Structure (SMILES)	IL-10 [1]	effect on H2O2 mediated oxidative stress (OCR) [2]	cytotoxic effects (MTT) [3]	TNF-α secretion induced by LPS [1]
COC1=C(OC)C(=O)C(C/C=C(\C)CC/C=C(\C)CC/C=C(\C)CC/C=C(\C)CC/C=C(\C)CC/C=C(\C)CC/C=C(\C)CC/C=C(\C)CC/C=C(\C)CCC=C(C)C)=C(C)C1=O [CoQ10, coenzyme Q10]	elevated	less efficiency in oxidative stress reduction	did not show any cytotoxic effects	–
C[C@]12C=CC(=O)C=C1CC[C@@H]1[C@@H]2C(=O)C[C@@]2(C)[C@H]1CC[C@]2(O)C(=O)CO [prednisone]	elevated	–	did not show any cytotoxic effects	significantly reduced
